Reference: patent US20150025031A1, “METABOLIC DOWNREGULATION FOR CELL SURVIVAL” (WAKE FOREST UNIVERSITY HEALTH SCIENCES, priority 2012, published 2015)
Where two headings read alike, the source gives them in different places.

How the values were obtained:
C2C12 mouse myoblasts [1] = settings: 5 mM; for cellular metabolism under hypoxia: MTS
Soleus muscle tissues = assay: Survival of soleus muscle tissue under hypoxia (H&E, EthD-1 dead assay); type: cell-based, Sprague Dawley rats; settings: 5 mM adenosine, 10 days hypoxic culture
Description: Soleus muscle tissues dissected immediately after sacrifice of Sprague Dawley rats (17 weeks old, 380-400 g, Harlan) were assigned to one of three groups in the growth medium: (1) native tissue group (2) no adenosine-treated hypoxic group and (3) hypoxic group with 5 mM adenosine supplemented in 2 mL of medium. The media was changed every third day. At day 10, a half of the tissue sample was fixed in 10% neutral buffered formalin (Sigma-Aldrich), 6 μm sections were generated by a cryotome (Leica), and stained with hematoxyline and eosin (H&E). Microscopic analysis was performed using a light microscope (Zeiss). Dead assay was assessed on the remaining tissues using 4 μM ethidium homodimer-1 (EthD-1, Invitrogen) to stain dead cells with damaged cell membranes. The stained sections were observed using a fluorescent microscope (Leica). The number of dead cells was quantitated using the “analyze particle” method with Image J software (U.S. National Institute of Health) on the fluorescence images, and its percentage was calculated based on the number of DAPI-stained cells on each section.

[2] = biological target: T1, adenosine deaminase (ADA) (Homo sapiens, UniProt P00813); assay: Cell viability with adenosine derivatives in presence or absence of ADA, normoxic conditions (Example 2); type: cell-based; settings: presence of ADA
T1 construct: purchased Sigma
T1 sequence (P00813 1-363): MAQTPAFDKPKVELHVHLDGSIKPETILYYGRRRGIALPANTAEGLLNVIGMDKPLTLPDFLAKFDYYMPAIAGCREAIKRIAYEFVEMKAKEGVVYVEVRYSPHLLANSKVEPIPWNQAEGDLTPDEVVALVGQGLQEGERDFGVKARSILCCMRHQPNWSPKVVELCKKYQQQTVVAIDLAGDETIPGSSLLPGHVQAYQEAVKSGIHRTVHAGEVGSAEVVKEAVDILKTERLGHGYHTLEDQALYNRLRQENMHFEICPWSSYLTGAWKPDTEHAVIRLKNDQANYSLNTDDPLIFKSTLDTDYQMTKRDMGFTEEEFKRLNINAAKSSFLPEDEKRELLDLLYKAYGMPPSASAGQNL
Description: Three known ADA inhibitors were examined to evaluate the efficacies of adenosine derivatives: cladribine, pentostatin, and fludarabine phosphate. They have similar structures and molecular weights compared to adenosine, but different functional groups in the structures. Metabolic rate of cells were indirectly analyzed by cell viability in the presence or absence of adenosine derivatives and ADA in various doses. Cell viability with the drugs was evaluated under normoxic conditions.
Adenosine (Sigma-Aldrich), cladribine (Sigma, 2-Chloro-2′-deoxyadenosine), pentostatin (Tocris biosciences), and fludarabine phosphate (LGM Pharma) were used throughout this study.

C2C12 cells [3] = assay: Myotube formation of hypoxia-survived C2C12 cells; type: cell-based, murine; settings: after 11 days adenosine under hypoxia, 2% horse serum medium 6 days
Description: After C2C12 cells that survived the hypoxic stress in the presence of adenosine were transferred to normoxic conditions without further supply of adenosine, they were cultured continuously for 3 days in the growth medium followed by 2% horse serum-containing medium for another 6 days. […] Nuclei were counterstained with DAPI (Vector). Photomicrographs were obtained using a Leica inverted fluorescence microscope. Myotube formation was also observed by Giemsa staining (1:20, Sigma-Aldrich) using a Zeiss upright light microscope.

C2C12 mouse myoblasts [4] = settings: 5 mM
C2C12 cells [5] = assay: Intracellular ATP level of C2C12 cells under hypoxia; type: cell-based, murine; settings: 5 mM adenosine
Description: (§1) Hypoxic condition was maintained with a gas mixture containing 0.1% O2, 5% CO2 and 94.9% N2 at 37° C. and full humidity in an X-Vivo System (Biospherix). […] The hypoxic groups were then placed to the hypoxic chamber and incubated up to day 11, whereas the normoxic group continued to be incubated in the regular incubator. No medium change was made on both normoxic and hypoxic groups up to day 11. After transfer to normoxic conditions, cells were cultured in the regular incubator with an exchange of no adenosine-containing, fresh medium every third day.
Intracellular ATP was measured by using the ATP Bioluminescence Assay Kit HS II (Roche Applied Science). Cells were lysed with 50 μL of lysis buffer and transferred into a well, then 50 μl of luciferase reagent was added to it. After mixing, the light emitted was measured and integrated for 10 seconds by using a SpectraMax M5 luminometer (Molecular Devices). The blank value (from a well containing no ATP) was subtracted from each sample's raw data. ATP concentrations were calculated from the linear part of the standard curve prepared with serial dilutions of a known concentration of ATP and expressed as moles per cell. This, in turn, was re-calculated to a percent ATP of that expressed in the cells grown under normoxic condition.

[6] = test system: C2C12 cells, murine myoblasts; assay: MTS metabolic activity of C2C12 cells under hypoxia with adenosine (Example 1); type: cell-based
Description: Another group receiving daily doses of adenosine ([…], achieved by serial dilution) was incubated for up to 7 days under hypoxia and then placed back into normoxic conditions without additional supply of adenosine. Adenosine was refreshed by the daily exchange of media in which adenosine was completely dissolved. Media to be used under hypoxia was placed in the hypoxic chamber 24 hr prior to use for deoxygenation down to 2% O2. The metabolic activity of viable cells at each pre-determined time point was assessed using an MTS assay, which measures mitochondrial activity of cells.

C2C12 murine myoblasts = assay: C2C12 cell counts (PicoGreen dsDNA) under 0.1% hypoxia, then normoxia; type: cell-based
Description: C2C12 murine myoblasts (ATCC) were cultured in a growth medium containing Dulbecco's modified Eagle's medium (DMEM, Gibco) supplemented with 10% FBS, 500 U/mL penicillin and 500 μg/mL streptomycin.
as §1
Cell proliferation of each group was determined by a Quanti-iT PicoGreen dsDNA Kit (Invitrogen). After washed with PBS, cells were lysed with 55 μL of RIPA buffer (Sigma) on ice for 5 min, then the supernatants were mixed with an equal volume of PicoGreen dsDNA quantitation reagent, a fluorescent DNA dye (excitation at 480 nm; emission at 520 nm). The DNA content was quantified using a SpectraMax M5 microplate reader (Molecular Devices). The number of cells was calculated using a standard curve plotted from fluorescent readings of serial dilutions of a known concentration of cells.
Cell viability was visualized using a calcein AM (Invitrogen) where viable cells fluoresce green through the reaction of calcein AM.

## Nc1ncnc2c1ncn2[C@@H]1O[C@H](CO)[C@@H](O)[C@H]1O [adenosine]
C2C12 mouse myoblasts [1]; treated with ADA
  cellular metabolism under hypoxia: failed to reduce cellular metabolism and showed increased metabolic activity when compared to control
C2C12 mouse myoblasts [1]; used alone (no ADA)
  metabolism after drug and hypoxia removed: recovered normal metabolism
  cellular metabolism under hypoxia: minimized cellular metabolism
Soleus muscle tissues
  degree of muscle damage (H&E): tissues cultured without adenosine showed more damage than those treated with 5 mM adenosine
Soleus muscle tissues; EthD-1
  dead cells as percentage of number of DAPI-stained cells: 46%
[2]
  conversion by ADA / stability towards adenosine degrading enzymes: lost its activity in presence of ADA
C2C12 cells [3]
  myotube formation (differentiating capability): showed capability of forming myotubes
C2C12 mouse myoblasts [4]; treated with ADA
  proliferation after drug and hypoxia removed: failed to revive after the hypoxia and drug was removed
C2C12 mouse myoblasts [4]; used alone (no ADA)
  proliferation after drug and hypoxia removed: started to regain their normal proliferation
C2C12 mouse myoblasts [4]; used alone (no ADA), 7 days hypoxia
  cell population under hypoxic condition: maintain cell population significantly lower than the no treatment control
C2C12 cells [5]; 0.1% hypoxia, day 11
  intracellular ATP level, percentage of that in normoxic cells: 18%
C2C12 cells [5]; throughout the hypoxic duration, p<0.05
  intracellular ATP level vs control cells: consistently higher ATP level
[6]; 22 days under adenosine, various doses
  restoration of normal proliferation rate after long-term exposure: still demonstrated the ability to restore its normal proliferation rate
[6]; C2C12, 0.1% O2, daily adenosine up to 7 days, MTS
  cellular (metabolic) activity under hypoxic conditions: maintained a steady state of cellular activity
[6]; C2C12, 0.1% O2 hypoxia, MTS metabolic activity
  minimum effective concentration of adenosine: about 1 mM
[6]; adenosine removed at day 7, back to normoxia
  resumption of normal metabolic activity after adenosine removal: resumed their normal metabolic activity two days after adenosine was removed at day 7
C2C12 murine myoblasts; 0.05 mM adenosine, after 11 days 0.1% hypoxia
  growth recovery after transfer to normoxic conditions: never recovered even after transfer to normoxic conditions
C2C12 murine myoblasts; 1, 2 and 5 mM adenosine, 0.1% hypoxia, day 11
  number of cells maintained after 11 days of hypoxic stress: two to four
C2C12 murine myoblasts; 1, 2 and 5 mM adenosine, after 11 days 0.1% hypoxia
  proliferation after transfer to normal oxygen tension: resumed their proliferation at a growth rate comparable to that in normoxic cells
C2C12 murine myoblasts; C2C12 survival, 0.1% hypoxia
  most effective adenosine concentration: 5 mM
C2C12 murine myoblasts; after transfer to normoxia, 1, 2, 5 mM
  time for onset of re-proliferation: concentration-dependent
